# Calls of active or inactive are those of the source.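 The calls were made as follows: active = 40% activation versus positive control reached by fitted dose-response curve at or below highest valid tested dose; inconclusive = poor fit quality, or flat fit with activation between 30% and 70%; inactive = the rest.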
# Test system: 68-5-11 mouse fibroblast XiGFP reporter, % GFP-positive imaging, 3 d
# Test: inactive X chromosome reactivation in XiGFP fibroblasts, dose response, imaging, 68-5-11 mouse fibroblasts, GFP, cherry-pick (AID 743394);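 also: sensitizer 5-aza-dC present in the wells at 0.5 mM final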
# Conditions: cells co-treated with 5-aza-dC sensitizer
row,SMILES,AC40
1,O=S(=O)(Nc1cc(Sc2cccc3cccnc23)c(O)c2ccccc12)c1ccccc1,> 19.5 µM (inactive)
2,CCOC(=O)C1=C(O)/C(=C/c2cc(OC)c(O)c(OC)c2)SC1=Nc1ccc(OC)cc1,18.3 µM
3,Cc1cc2oc3ccc(NCCCn4ccnc4)cc3c(=O)c2cc1C,11.3 µM
4,COc1ccc(/C=C/C(=O)c2ccc([N+](=O)[O-])o2)cc1OC,14.3 µM
5,O=[N+]([O-])c1ccc(C2=NN(c3ccccc3)C(c3ccco3)C2)cc1 (stereo not drawn),2.25 µM
6,F[B-](F)(F)c1cnc2ccccc2c1,> 6.8 µM (inactive)
7,Cc1nnc(N2C(=O)c3cccc4c([N+](=O)[O-])ccc(c34)C2=O)s1,> 19.5 µM (inactive)
8,CCN(CC)c1ccc2cc(-c3nc(-c4ccc(OC)cc4)cs3)c(=O)oc2c1,0.057 µM
9,Cc1ccc(NC(=O)/C=C/c2ccc([N+](=O)[O-])s2)cc1,3.11 µM
10,O=[N+]([O-])c1c(Nc2ccc(O)cc2)cc(Cl)c2nonc12,8.92 µM
11,COc1ccc(NC(=O)CCc2ccccc2)cc1S(=O)(=O)N1CCCCC1,17 µM
12,Cc1ccc2[nH]c(C)c(/C=C/c3cc[n+](C)cc3)c2c1,8.58 µM
13,Cc1c2c(cc3c1[nH]c1ccccc13)C=NCC2,9.27 µM
14,Nc1[nH]c2cc([N+](=O)[O-])ccc2c1-c1ccccn1,4.61 µM
15,O=[N+]([O-])c1ccc(/C=N/NC(=S)Nc2ccc(Cl)cc2Cl)s1,> 19.5 µM (inactive)
16,C=CCN1C(=O)[C@@H]2Cc3c([nH]c4ccccc34)C(c3cc(OC)c(OC)c(OC)c3)N2C1=S (stereo partly drawn),> 19.5 µM (inactive)
17,COc1cc(/C=C/C(=O)c2ccc([N+](=O)[O-])o2)ccc1O,10.3 µM
18,COc1ccc2c(n1)Sc1nc3ccccc3nc1N2,13.1 µM
19,CCN1/C(=C\c2ccc3ccccc3[n+]2CC)Sc2cc(C)ccc21,0.668 µM
20,CCN(CC)C1=CC2=CC(=C(C#N)C#N)CCC2CC1 (stereo not drawn),8.77 µM
21,O=CNc1ccc2c3c(cccc13)-c1ccccc1-2,5.85 µM
22,Cc1cccc(NC(=O)/C=C/c2ccc([N+](=O)[O-])s2)c1,1.58 µM

row,SMILES,AC40
1,COC1C(CO)OC(n2c3c(Cl)cccc3c3c4c(c5c6cccc(Cl)c6[nH]c5c32)C(=O)NC4=O)C(O)C1O (stereo not drawn),13.8 µM
2,N#C/C(=C\c1ccc([N+](=O)[O-])o1)c1nc2ccccc2[nH]1,1.26 µM
3,O=[N+]([O-])c1ccc(N2N=C(c3ccccc3)CC2c2ccccc2O)cc1 (stereo not drawn),12.4 µM
4,N#Cc1c(-c2ccccc2F)cc(C2CC2)nc1SCC(=O)c1cccs1,7.48 µM
5,Cc1cccc2cc3c(N)c(C(=O)N4CCc5ccccc54)sc3nc12,14.1 µM
6,O=C(NC1CCCC1)c1cccc2c1C(=O)c1ccc(/C=C/c3ccccc3)cc1S2(=O)=O,5.54 µM
7,Cn1cc(C2=C(c3ccc(Cl)cc3Cl)C(=O)NC2=O)c2ccccc21,6.16 µM
8,CCOC(=O)/C=c1\s/c(=C\c2ccc3cc(OC)ccc3c2)c(=O)n1CC(=O)NCc1ccc2c(c1)OCO2,7.15 µM
9,N=c1ccn2c(n1)OC1C(O)C(CO)OC12 (stereo not drawn),19.1 µM
10,c1ccc(-c2cnn3c(-c4ccccc4)c(-c4ccccc4)nc3n2)cc1,1.8 µM
11,CCN(CC)c1ccc(/C=C/c2cc(-c3ccccc3)c3ccccc3n2)cc1,1.68 µM
12,N#C/C(=C/c1ccc(-c2ccccc2)o1)c1nc(-c2cccs2)cs1,5.05 µM
13,N#C/C(=C/c1ccc(-c2ccc(S(N)(=O)=O)cc2)o1)c1nc2ccccc2s1,1.17 µM
14,Nc1ccc2c3c(cccc13)-c1ccccc1-2,1.04 µM
15,Cc1nonc1NC(=O)CSc1nc2c(C)cccc2cc1C#N,6.5 µM
16,Cc1ccc2c(c1)c(/C=C/c1cc[n+](C)cc1)c(C)n2C,2.65 µM
17,CN(C)c1ccc(/C=C(/C#N)C(=O)NCc2ccccc2)o1,10.3 µM
18,CC(=O)c1ccc(C(=O)Nc2sc3c(c2C(N)=O)CCN(Cc2ccccc2)C3)cc1,> 19.5 µM (inactive)
19,N#CC(C#N)=C1C=C2C=C(N3CCCCCC3)CCC2CC1 (stereo not drawn),4 µM
20,O=c1oc2cc(O)ccc2cc1-c1nc2c(s1)CCc1ccccc1-2,2.79 µM
21,Cc1ccc(-c2cn3nc(-c4ccccc4)c(-c4ccccc4)nc3n2)cc1,7.27 µM
